# In PMC5462828 (Scientific Reports, 2017):
# Read-outs that look alike come from different tables or passages of the source.
# Columns and labels:
# RXFP2 = details: cited from earlier work
# LDLa mutant receptors = details: cited from earlier work
# RXFP1 and Gαs = test system: T1, RXFP1 and Gαs; experiment: Real-time kinetic BRET, RXFP1-Rluc8 / Gαs; format: cell-based, human; details: HEK293T co-expressing RXFP1-Rluc8, Gγ2-Venus, Gβ1, Gαs; H2 relaxin 100 nM, ML290 100 nM or 10 μM
# T1 construct: forward primer encodes M-D-S-K-G-S-S, not the native RXFP1 start (N); expressed in transfected cells; host or cells: HEK293T cells stably expressing RXFP1-Rluc8, transiently co-transfected with the G protein subunits
# Description: HEK293 cell were seeded in 6-well plates at a density of 600,000 cells per well and transfected with constructs encoding the tagged receptors and signalling proteins. 24 h later cells were harvested in HEPES-buffered phenol red-free medium containing 5% FBS and plated out in a white 96-well plate (Nunc) that was incubated at 37 °C under 5% CO2. BRET assays were performed 48 h after transfection as described previously, [52]. Medium was replaced with phenol-red-free-DMEM supplemented with 5% FBS plus 5 μM coelenterazine h. BRET measurements were made at 37 °C using the PHERAstar Omega plate reader with Omega software (BMG LABTECH, Germany). Filtered light emissions were simultaneously measured in each of the “donor wavelength window” (475 ± 15 nm for Rluc8 with coelenterazine h) and “acceptor wavelength window” (535 ± 15 nm for Venus). Cells were assayed before and after treatment with ligands or 5% FBS phenol-red-free-DMEM medium containing 0.01% w/v BSA (vehicle). The BRET signal was calculated as previously described.
# THP-1 cells = test system: THP-1 cells; set-up: method as in PMID 23764525; details: cited from earlier work
# p-Smad3 = experiment: Smad3 phosphorylation assay in human cardiac fibroblasts; format: cell-based; details: 72 hours
# Description: Cells were serum-starved in M199 medium for 24 hours prior sample collection. Cells were used between passages 1–4, while all experiments were performed four separate times in duplicate. Levels of p-Smad2 and p-Smad3 were detected using Sure-fire kits according to the manufacturer’s instructions (Perkin-Elmer, Australia).
# RXFP1 [1] = experiment: ERK1/2 phosphorylation (Surefire) in human primary vascular cells and cardiac fibroblasts; format: cell-based; details: HUAEC
# Description: (§1) p-ERK1/2, p-p38MAPK and p-JNK1/2 was measured using the Surefire ERK, p38 and JNK kits (TGR BioSciences, Australia) as described previously, [16]. Briefly, HEK-RXFP1 cells were plated into 96-well plates (5 × 10^4 cells/well) and primary cells grown in 24-well plates (1 × 10^5 cells/well) overnight to achieve a confluent monolayer. Prior to stimulation, HEK293 cells were serum-starved with DMEM containing 0.5% (v/v) FBS and primary cells in M199 medium for 4–6 hours. […] Levels of p-ERK1/2, p-p38MAPK and p-JNK1/2/3 were detected as per manufacturer’s instructions (Perkin-Elmer, Australia).
# RXFP1 [2] = molecular target: T2, RXFP1 (Homo sapiens, UniProt Q9HBX9); experiment: JNK1/2 phosphorylation (Surefire) in HEK-RXFP1 cells; format: cell-based; set-up: expressed in transfected cells; host or cells: HEK293T / HEK293 cells stably expressing RXFP1 (HEK-RXFP1); details: up to 45 min, H2 relaxin 100 nM, ML290 100 nM or 10 μM
# T2 sequence (Q9HBX9 1-757): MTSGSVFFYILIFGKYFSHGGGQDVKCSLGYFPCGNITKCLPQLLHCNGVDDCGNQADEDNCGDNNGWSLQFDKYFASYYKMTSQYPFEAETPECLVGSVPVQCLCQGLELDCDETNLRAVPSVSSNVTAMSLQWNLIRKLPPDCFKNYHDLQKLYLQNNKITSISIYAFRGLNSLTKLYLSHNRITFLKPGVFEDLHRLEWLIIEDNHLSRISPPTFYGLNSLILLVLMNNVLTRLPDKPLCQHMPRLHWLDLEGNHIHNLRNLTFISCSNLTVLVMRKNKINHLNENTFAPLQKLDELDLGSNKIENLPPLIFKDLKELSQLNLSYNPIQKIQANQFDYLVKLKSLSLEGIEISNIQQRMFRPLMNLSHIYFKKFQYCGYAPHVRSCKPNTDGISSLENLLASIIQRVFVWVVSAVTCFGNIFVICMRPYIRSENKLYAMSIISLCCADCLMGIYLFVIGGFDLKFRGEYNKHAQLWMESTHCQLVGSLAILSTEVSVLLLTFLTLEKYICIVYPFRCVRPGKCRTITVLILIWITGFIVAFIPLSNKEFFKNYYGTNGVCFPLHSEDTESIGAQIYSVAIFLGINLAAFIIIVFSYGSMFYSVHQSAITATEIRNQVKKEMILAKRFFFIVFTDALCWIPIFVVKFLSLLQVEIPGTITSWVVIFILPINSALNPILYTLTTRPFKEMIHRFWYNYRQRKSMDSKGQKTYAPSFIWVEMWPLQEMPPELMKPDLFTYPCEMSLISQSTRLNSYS
# Description: as §1
# RXFP3 = test system: RXFP3; set-up: method as in PMID 23764525; details: cited from earlier work
# [3] = set-up: method as in PMID 23764525; details: cited from earlier work
# human RXFP1 [4] = details: cited from earlier work
# human RXFP1 [5] = details: cited from earlier work; remark: listed apart in the source
# [6] = test system: ML290-mediated cGMP accumulation; experiment: Effect of signalling pathway inhibitors on ML290-mediated cGMP accumulation in human primary vascular cells; format: cell-based; details: for Emax: Homo sapiens, read-out: ML290-mediated cGMP accumulation (maximum response), ML290 alone
# Description: cAMP and cGMP accumulation was determined as previously described, [16]. Briefly, HEK293 cells were plated in 96-well plates (5 × 10^4 cells/well) and human primary cells were plated into 24-well plates (1 × 10^5 cells/well) and grown overnight to achieve a confluent monolayer. Prior to stimulation, HEK cells were serum-starved in DMEM containing 0.5% FBS v/v and primary cells were serum-starved in M199 medium for 4–6 hours. […] Levels of cAMP and cGMP were detected according to the manufacturer’s instructions (Perkin-Elmer, Australia).
# [7] = set-up: method as in PMID 23764525; details: cited from earlier work; remark: listed apart in the source
compound,measurement,setting,value
"CC(C)Oc1ccccc1C(=O)Nc1ccccc1C(=O)Nc1cccc(S(=O)(=O)C(F)(F)F)c1 [ML290, 2-Isopropoxy-N-(2-(3-(trifluoromethylsulfonyl)phenylcarbamoyl)phenyl) benzamide]",action at RXFP2,RXFP2,little or no action
same,cAMP production with LDLa mutant receptors,LDLa mutant receptors,still activates cAMP production
same,"ligand-induced BRET, RXFP1 - Gαs interaction",RXFP1 and Gαs,promoted interactions
same,VEGF expression,THP-1 cells,increased VEGF expression
same,effect on p-Smad3 levels,"p-Smad3; HCFs not treated with TGF-β1, H2 relaxin 0.1 μM, ML290 1 μM",neither H2 relaxin (0.1 μM) nor ML290 (1 μM) significantly affected
same,p-Smad3 in TGF-β1-stimulated cells,"p-Smad3; HCFs, TGF-β1 2 ng/ml + H2 relaxin 0.1 μM or ML290 1 μM",1.15 ± 0.05 fold/basal
same,ERK1/2 phosphorylation,RXFP1 [1],did not cause ERK1/2 phosphorylation
same,"JNK1/2 phosphorylation, time course",RXFP1 [2],no effect
same,action at RXFP3,RXFP3,little or no action
same,microsomal stability,[3],high microsomal stability
same,agonist action at human RXFP1,human RXFP1 [4],activates
same,competition for 125I-H2 relaxin binding,human RXFP1 [5],does not compete
same,"ML290-mediated cGMP accumulation, ML290 alone","[6]; HUASMCs, control of NF449 and mSIRK experiments",41.9 ± 4.8%
same,"ML290-mediated cGMP accumulation, ML290 alone","[6]; HUASMCs, control of gallein and Wortmannin experiments",32.1 ± 4.2%
same,"ML290-mediated cGMP accumulation, ML290 alone","[6]; HUVSMCs, control of NF449 and mSIRK experiments",31.4 ± 4.8%
same,"ML290-mediated cGMP accumulation, ML290 alone","[6]; HUVSMCs, control of gallein and Wortmannin experiments",30.4 ± 3.2%
same,Emax,[6]; HUVEC,39.5 ± 4.8%
same,Emax,[6],41 ± 4.5%
same,T1/2 in heart,[7]; heart,7.48 h
same,tissue distribution,[7]; heart,concentrated in the heart
same,plasma half-life,[7]; mice,8.56 h
same,toxicity,[7]; mice,without obvious toxicity
same,T1/2 in plasma,[7]; plasma,8.56 h
